system: K86415-001-R-J1-PDC complex spheroids, viability; assay: Anticancer human tumor K86415-001-R-J1-PDC patient-derived lung adenocarcinoma cell line growth inhibition [RAS]; details: second compound 1 µM; first compound 0.00316 µM; active compounds read low
Summary of the method: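 Agents were tested in combination matrices in half-log decrements from a top concentration at or near clinical Cmax (10 microM if undetermined). Targets were multi-cell spheroids of tumour lines plus HUVEC and MSC stromal cells.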
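Note: spheroids exposed to agents for seven days before readout.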

For `O=C(c1ccc(F)c(F)c1Nc1ccc(I)cc1F)N1CC(O)([C@@H]2CCCCN2)C1` + C=CC(=O)N1CCN(c2nc(OCC3CCCN3C)nc3c(F)c(-c4nc(N)cc(C)c4C(F)(F)F)c(Cl)cc23)C(C)C1, which viability, T/C is on record?
Its viability, T/C is 10%.

same assay, conditions: second compound 1 µM; first compound 0.01 µM; active compounds read low

Which viability, T/C does the source give for `CC(C)n1nc(-c2ccc3oc(N)nc3c2)c2c(N)ncnc21` + C=CC(=O)N1CCN(c2nc(OCC3CCCN3C)nc3c(F)c(-c4nc(N)cc(C)c4C(F)(F)F)c(Cl)cc23)C(C)C1 here?
The viability, T/C was 8.63%.

Which viability, T/C does the source give for `O=C(c1ccc(F)c(F)c1Nc1ccc(I)cc1F)N1CC(O)([C@@H]2CCCCN2)C1` + C=CC(=O)N1CCN(c2nc(OCC3CCCN3C)nc3c(F)c(-c4nc(N)cc(C)c4C(F)(F)F)c(Cl)cc23)C(C)C1 here?
Its viability, T/C is 8.81%.

same assay, conditions: second compound 1 µM; first compound 0.0316 µM; active compounds read low

How did the viability, T/C turn out when `CC(C)NCC(C(=O)N1CCN(c2ncnc3c2C(C)CC3O)CC1)c1ccc(Cl)cc1` (configuration not stated) + C=CC(=O)N1CCN(c2nc(OCC3CCCN3C)nc3c(F)c(-c4nc(N)cc(C)c4C(F)(F)F)c(Cl)cc23)C(C)C1 was run?
Its viability, T/C is 9.4%.

How did the viability, T/C turn out when `CC(C)n1nc(-c2ccc3oc(N)nc3c2)c2c(N)ncnc21` + C=CC(=O)N1CCN(c2nc(OCC3CCCN3C)nc3c(F)c(-c4nc(N)cc(C)c4C(F)(F)F)c(Cl)cc23)C(C)C1 was run?
Its viability, T/C is 6.85%.

Which viability, T/C does the source give for `CC(Nc1ccc2c(c1)OCCn1cc(N3C(=O)OCC3C(F)F)nc1-2)C(N)=O` (configuration not stated) + C=CC(=O)N1CCN(c2nc(OCC3CCCN3C)nc3c(F)c(-c4nc(N)cc(C)c4C(F)(F)F)c(Cl)cc23)C(C)C1 here?
Its viability, T/C is 7.44%.

With `C[C@@H](NC(=O)c1ncnc(N)c1Cl)c1ncc(C(=O)Nc2cc(C(F)(F)F)c(Cl)cn2)s1` + C=CC(=O)N1CCN(c2nc(OCC3CCCN3C)nc3c(F)c(-c4nc(N)cc(C)c4C(F)(F)F)c(Cl)cc23)C(C)C1 as the compound, how does the viability, T/C read?
The viability, T/C was 10.6%.

For `O=C(c1ccc(F)c(F)c1Nc1ccc(I)cc1F)N1CC(O)([C@@H]2CCCCN2)C1` + C=CC(=O)N1CCN(c2nc(OCC3CCCN3C)nc3c(F)c(-c4nc(N)cc(C)c4C(F)(F)F)c(Cl)cc23)C(C)C1, which viability, T/C is on record?
Its viability, T/C is 8.35%.

same assay, conditions: second compound 1 µM; first compound 0.1 µM; active compounds read low

For `CC(C)NCC(C(=O)N1CCN(c2ncnc3c2C(C)CC3O)CC1)c1ccc(Cl)cc1` (configuration not stated) + C=CC(=O)N1CCN(c2nc(OCC3CCCN3C)nc3c(F)c(-c4nc(N)cc(C)c4C(F)(F)F)c(Cl)cc23)C(C)C1, which viability, T/C is on record?
The viability, T/C was 10.8%.

With `CC(C)n1nc(-c2ccc3oc(N)nc3c2)c2c(N)ncnc21` + C=CC(=O)N1CCN(c2nc(OCC3CCCN3C)nc3c(F)c(-c4nc(N)cc(C)c4C(F)(F)F)c(Cl)cc23)C(C)C1 as the compound, how does the viability, T/C read?
The viability, T/C was 2.72%.

`CC(Nc1ccc2c(c1)OCCn1cc(N3C(=O)OCC3C(F)F)nc1-2)C(N)=O` (configuration not stated) + C=CC(=O)N1CCN(c2nc(OCC3CCCN3C)nc3c(F)c(-c4nc(N)cc(C)c4C(F)(F)F)c(Cl)cc23)C(C)C1 was tested. Which viability, T/C did it give?
The viability, T/C was 6.59%.

With `C[C@@H](NC(=O)c1ncnc(N)c1Cl)c1ncc(C(=O)Nc2cc(C(F)(F)F)c(Cl)cn2)s1` + C=CC(=O)N1CCN(c2nc(OCC3CCCN3C)nc3c(F)c(-c4nc(N)cc(C)c4C(F)(F)F)c(Cl)cc23)C(C)C1 as the compound, how does the viability, T/C read?
The viability, T/C was 13%.

Which viability, T/C does the source give for `O=C(c1ccc(F)c(F)c1Nc1ccc(I)cc1F)N1CC(O)([C@@H]2CCCCN2)C1` + C=CC(=O)N1CCN(c2nc(OCC3CCCN3C)nc3c(F)c(-c4nc(N)cc(C)c4C(F)(F)F)c(Cl)cc23)C(C)C1 here?
The viability, T/C was 5.6%.

same assay, conditions: second compound 1 µM; first compound 0.316 µM; active compounds read low

Which viability, T/C does the source give for `CC(C)NCC(C(=O)N1CCN(c2ncnc3c2C(C)CC3O)CC1)c1ccc(Cl)cc1` (configuration not stated) + C=CC(=O)N1CCN(c2nc(OCC3CCCN3C)nc3c(F)c(-c4nc(N)cc(C)c4C(F)(F)F)c(Cl)cc23)C(C)C1 here?
The viability, T/C was 7.39%.

Which viability, T/C does the source give for `CC(Nc1ccc2c(c1)OCCn1cc(N3C(=O)OCC3C(F)F)nc1-2)C(N)=O` (configuration not stated) + C=CC(=O)N1CCN(c2nc(OCC3CCCN3C)nc3c(F)c(-c4nc(N)cc(C)c4C(F)(F)F)c(Cl)cc23)C(C)C1 here?
Its viability, T/C is 4.3%.

For `C[C@@H](NC(=O)c1ncnc(N)c1Cl)c1ncc(C(=O)Nc2cc(C(F)(F)F)c(Cl)cn2)s1` + C=CC(=O)N1CCN(c2nc(OCC3CCCN3C)nc3c(F)c(-c4nc(N)cc(C)c4C(F)(F)F)c(Cl)cc23)C(C)C1, which viability, T/C is on record?
Its viability, T/C is 13.4%.

How did the viability, T/C turn out when `O=C(c1ccc(F)c(F)c1Nc1ccc(I)cc1F)N1CC(O)([C@@H]2CCCCN2)C1` + C=CC(=O)N1CCN(c2nc(OCC3CCCN3C)nc3c(F)c(-c4nc(N)cc(C)c4C(F)(F)F)c(Cl)cc23)C(C)C1 was run?
The viability, T/C was 4.91%.

same assay, conditions: second compound 1 µM; first compound 1 µM; active compounds read low

`CC(C)NCC(C(=O)N1CCN(c2ncnc3c2C(C)CC3O)CC1)c1ccc(Cl)cc1` (configuration not stated) + C=CC(=O)N1CCN(c2nc(OCC3CCCN3C)nc3c(F)c(-c4nc(N)cc(C)c4C(F)(F)F)c(Cl)cc23)C(C)C1 was tested. Which viability, T/C did it give?
Its viability, T/C is 6.41%.

With `CC(Nc1ccc2c(c1)OCCn1cc(N3C(=O)OCC3C(F)F)nc1-2)C(N)=O` (configuration not stated) + C=CC(=O)N1CCN(c2nc(OCC3CCCN3C)nc3c(F)c(-c4nc(N)cc(C)c4C(F)(F)F)c(Cl)cc23)C(C)C1 as the compound, how does the viability, T/C read?
Its viability, T/C is 2.92%.

For `C[C@@H](NC(=O)c1ncnc(N)c1Cl)c1ncc(C(=O)Nc2cc(C(F)(F)F)c(Cl)cn2)s1` + C=CC(=O)N1CCN(c2nc(OCC3CCCN3C)nc3c(F)c(-c4nc(N)cc(C)c4C(F)(F)F)c(Cl)cc23)C(C)C1, which viability, T/C is on record?
Its viability, T/C is 11.6%.

Which viability, T/C does the source give for `O=C(c1ccc(F)c(F)c1Nc1ccc(I)cc1F)N1CC(O)([C@@H]2CCCCN2)C1` + C=CC(=O)N1CCN(c2nc(OCC3CCCN3C)nc3c(F)c(-c4nc(N)cc(C)c4C(F)(F)F)c(Cl)cc23)C(C)C1 here?
Its viability, T/C is 2.61%.

same assay, conditions: second compound 1 µM; first compound 3.16 µM; active compounds read low

With `CC(C)NCC(C(=O)N1CCN(c2ncnc3c2C(C)CC3O)CC1)c1ccc(Cl)cc1` (configuration not stated) + C=CC(=O)N1CCN(c2nc(OCC3CCCN3C)nc3c(F)c(-c4nc(N)cc(C)c4C(F)(F)F)c(Cl)cc23)C(C)C1 as the compound, how does the viability, T/C read?
Its viability, T/C is 5.23%.

Which viability, T/C does the source give for `CC(Nc1ccc2c(c1)OCCn1cc(N3C(=O)OCC3C(F)F)nc1-2)C(N)=O` (configuration not stated) + C=CC(=O)N1CCN(c2nc(OCC3CCCN3C)nc3c(F)c(-c4nc(N)cc(C)c4C(F)(F)F)c(Cl)cc23)C(C)C1 here?
The viability, T/C was 2.11%.

How did the viability, T/C turn out when `C[C@@H](NC(=O)c1ncnc(N)c1Cl)c1ncc(C(=O)Nc2cc(C(F)(F)F)c(Cl)cn2)s1` + C=CC(=O)N1CCN(c2nc(OCC3CCCN3C)nc3c(F)c(-c4nc(N)cc(C)c4C(F)(F)F)c(Cl)cc23)C(C)C1 was run?
The viability, T/C was 10.8%.

same assay, conditions: second compound 1 µM; first compound 10 µM; active compounds read low

For `CC(C)NCC(C(=O)N1CCN(c2ncnc3c2C(C)CC3O)CC1)c1ccc(Cl)cc1` (configuration not stated) + C=CC(=O)N1CCN(c2nc(OCC3CCCN3C)nc3c(F)c(-c4nc(N)cc(C)c4C(F)(F)F)c(Cl)cc23)C(C)C1, which viability, T/C is on record?
Its viability, T/C is 3.49%.

With `CC(Nc1ccc2c(c1)OCCn1cc(N3C(=O)OCC3C(F)F)nc1-2)C(N)=O` (configuration not stated) + C=CC(=O)N1CCN(c2nc(OCC3CCCN3C)nc3c(F)c(-c4nc(N)cc(C)c4C(F)(F)F)c(Cl)cc23)C(C)C1 as the compound, how does the viability, T/C read?
Its viability, T/C is 1.04%.

Which viability, T/C does the source give for `C[C@@H](NC(=O)c1ncnc(N)c1Cl)c1ncc(C(=O)Nc2cc(C(F)(F)F)c(Cl)cn2)s1` + C=CC(=O)N1CCN(c2nc(OCC3CCCN3C)nc3c(F)c(-c4nc(N)cc(C)c4C(F)(F)F)c(Cl)cc23)C(C)C1 here?
Its viability, T/C is 11.1%.

Reference: PubChem BioAssay AID2060893 (Molecular Pharmacology Branch, DTP, NCI, 2025)
